Assay results published in patent EP2047849A1 (KTB Tumorforschungsgesellschaft mbH, priority 2007, dated 2009).
Positions count from the first letter of the chain named.

Assays:
Experiment in all cases: 33PanQinase Activity Assay (in vitro protein kinase activity assay)
Assay type in all cases: biochemical
Details in all cases: recombinant purified kinase, 1 µM [γ-33P]-ATP
CHK2 = target: T1, CHK2 (Homo sapiens, UniProt O96017)
T1 construct: made in house; host or cells: Sf9 insect cells (baculovirus)
Method: (§1) Inhibition of protein kinases by compounds was measured in proprietary protein kinase activity assay (^33PanQinase® Activity Assay) using recombinant purified protein kinases. All protein kinases were expressed in Sf9 insect cells as recombinant GST-fusion proteins or His-tagged proteins by means of the baculovirus expression system. All kinases were produced from human cDNAs. Kinases were purified by affinity chromatography using either GSH-agarose (Sigma) or Ni-NTH-agarose (Qiagen). The purity of the protein kinases was examined by SDS-PAGE/Coomassie staining. Activity was measured by determination of the incorporation of radio labelled phosphate into a substrate. The reaction cocktails for all enzymes contained 60 mM HEPES-NaOH, 10 mM Tris/HCl, pH 7.5, 20 mM NaCl, 3 mM MgCl2, 3 mM MnCl2, 3 µM Na-orthovanadate, 2 mM DTT, 4% glycerol, 1 µM [γ-^33P]-ATP (approx. 6 x 10^5 cpm per well), protein kinase , and substrate. Table 1: Protein kinases inhibited with high potency in vitro by compound PQ-012, PQ-013, PQ-014, PQ-016, PQ-041, PQ-042.

FAK = target: T2, FAK (Homo sapiens, UniProt Q05397)
T2 construct: made in house; host or cells: Sf9 insect cells (baculovirus)
Method: as §1

FLT3 D835Y = target: T3, FLT3 D835Y (Homo sapiens, UniProt P36888, D835Y)
T3 construct: made in house; host or cells: Sf9 insect cells (baculovirus)
T3 sequence (P36888 27-993 D835Y): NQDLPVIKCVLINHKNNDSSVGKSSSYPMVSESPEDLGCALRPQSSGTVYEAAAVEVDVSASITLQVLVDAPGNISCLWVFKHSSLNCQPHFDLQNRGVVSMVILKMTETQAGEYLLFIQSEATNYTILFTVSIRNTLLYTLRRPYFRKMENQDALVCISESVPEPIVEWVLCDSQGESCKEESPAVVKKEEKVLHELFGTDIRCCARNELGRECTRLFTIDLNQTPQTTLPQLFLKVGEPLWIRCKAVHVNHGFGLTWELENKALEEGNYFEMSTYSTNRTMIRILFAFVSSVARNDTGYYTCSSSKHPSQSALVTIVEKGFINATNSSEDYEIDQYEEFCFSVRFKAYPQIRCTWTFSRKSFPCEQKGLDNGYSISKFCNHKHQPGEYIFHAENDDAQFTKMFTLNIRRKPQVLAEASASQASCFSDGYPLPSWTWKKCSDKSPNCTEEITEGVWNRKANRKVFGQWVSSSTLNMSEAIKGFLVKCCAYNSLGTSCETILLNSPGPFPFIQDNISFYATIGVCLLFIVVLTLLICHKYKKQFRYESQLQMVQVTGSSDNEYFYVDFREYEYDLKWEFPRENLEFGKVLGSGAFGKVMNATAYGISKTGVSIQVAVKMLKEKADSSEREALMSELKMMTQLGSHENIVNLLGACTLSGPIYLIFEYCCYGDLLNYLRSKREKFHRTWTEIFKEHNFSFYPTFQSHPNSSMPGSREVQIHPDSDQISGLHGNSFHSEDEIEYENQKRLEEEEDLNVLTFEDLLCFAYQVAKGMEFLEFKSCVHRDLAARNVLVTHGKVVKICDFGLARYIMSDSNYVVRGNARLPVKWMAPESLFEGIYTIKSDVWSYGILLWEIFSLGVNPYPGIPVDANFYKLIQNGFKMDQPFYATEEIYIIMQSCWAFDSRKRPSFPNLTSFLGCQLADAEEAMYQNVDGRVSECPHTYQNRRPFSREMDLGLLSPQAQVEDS
Method: as §1

FLT3 wt = target: T4, FLT3 wt (Homo sapiens, UniProt P36888)
T4 construct: made in house; host or cells: Sf9 insect cells (baculovirus)
T4 sequence (P36888 27-993): T3 sequence (P36888 27-993 D835Y) with Y809D
Method: as §1

PDGFR-alpha = target: T5, PDGFR-alpha (Homo sapiens, UniProt P16234)
T5 construct: made in house; host or cells: Sf9 insect cells (baculovirus)
Method: as §1

PDGFR-beta = target: T6, PDGFR-beta (Homo sapiens, UniProt P09619)
T6 construct: made in house; host or cells: Sf9 insect cells (baculovirus)
Method: as §1

Aurora B = target: T7, Aurora B (Homo sapiens, UniProt Q96GD4)
T7 construct: made in house; host or cells: Sf9 insect cells (baculovirus)
Method: as §1

MAP4K4 = target: T8, MAP4K4 (Homo sapiens, UniProt O95819)
T8 construct: made in house; host or cells: Sf9 insect cells (baculovirus)
Method: as §1

PLK4 = target: T9, PLK4 (Homo sapiens, UniProt O00444)
T9 construct: made in house; host or cells: Sf9 insect cells (baculovirus)
T9 sequence (O00444 1-970): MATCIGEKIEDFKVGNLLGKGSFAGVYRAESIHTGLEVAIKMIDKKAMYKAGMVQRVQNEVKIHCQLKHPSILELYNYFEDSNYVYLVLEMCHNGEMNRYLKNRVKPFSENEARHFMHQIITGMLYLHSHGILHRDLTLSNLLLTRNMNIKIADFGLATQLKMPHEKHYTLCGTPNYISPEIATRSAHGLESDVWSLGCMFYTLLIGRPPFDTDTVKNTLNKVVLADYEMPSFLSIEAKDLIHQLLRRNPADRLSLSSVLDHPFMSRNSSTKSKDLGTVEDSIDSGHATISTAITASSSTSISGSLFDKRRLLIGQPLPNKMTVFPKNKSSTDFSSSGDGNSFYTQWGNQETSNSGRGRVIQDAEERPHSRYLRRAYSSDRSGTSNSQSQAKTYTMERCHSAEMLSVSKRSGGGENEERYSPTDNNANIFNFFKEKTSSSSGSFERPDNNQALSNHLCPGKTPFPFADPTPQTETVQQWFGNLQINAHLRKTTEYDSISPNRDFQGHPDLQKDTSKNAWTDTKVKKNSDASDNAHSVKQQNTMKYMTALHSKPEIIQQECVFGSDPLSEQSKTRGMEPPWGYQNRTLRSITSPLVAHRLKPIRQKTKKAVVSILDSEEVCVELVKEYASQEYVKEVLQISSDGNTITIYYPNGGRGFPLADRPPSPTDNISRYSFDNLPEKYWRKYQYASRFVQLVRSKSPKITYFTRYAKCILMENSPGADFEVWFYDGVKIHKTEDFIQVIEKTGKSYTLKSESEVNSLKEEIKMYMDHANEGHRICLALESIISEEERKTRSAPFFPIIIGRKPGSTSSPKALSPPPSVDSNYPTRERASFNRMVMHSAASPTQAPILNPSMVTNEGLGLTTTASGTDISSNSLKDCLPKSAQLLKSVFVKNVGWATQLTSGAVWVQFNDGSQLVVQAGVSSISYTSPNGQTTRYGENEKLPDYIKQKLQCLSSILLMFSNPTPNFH
Method: as §1

PRKG2 = target: T10, PRKG2 (Homo sapiens, UniProt Q13237)
T10 construct: made in house; host or cells: Sf9 insect cells (baculovirus)
T10 sequence (Q13237 1-762): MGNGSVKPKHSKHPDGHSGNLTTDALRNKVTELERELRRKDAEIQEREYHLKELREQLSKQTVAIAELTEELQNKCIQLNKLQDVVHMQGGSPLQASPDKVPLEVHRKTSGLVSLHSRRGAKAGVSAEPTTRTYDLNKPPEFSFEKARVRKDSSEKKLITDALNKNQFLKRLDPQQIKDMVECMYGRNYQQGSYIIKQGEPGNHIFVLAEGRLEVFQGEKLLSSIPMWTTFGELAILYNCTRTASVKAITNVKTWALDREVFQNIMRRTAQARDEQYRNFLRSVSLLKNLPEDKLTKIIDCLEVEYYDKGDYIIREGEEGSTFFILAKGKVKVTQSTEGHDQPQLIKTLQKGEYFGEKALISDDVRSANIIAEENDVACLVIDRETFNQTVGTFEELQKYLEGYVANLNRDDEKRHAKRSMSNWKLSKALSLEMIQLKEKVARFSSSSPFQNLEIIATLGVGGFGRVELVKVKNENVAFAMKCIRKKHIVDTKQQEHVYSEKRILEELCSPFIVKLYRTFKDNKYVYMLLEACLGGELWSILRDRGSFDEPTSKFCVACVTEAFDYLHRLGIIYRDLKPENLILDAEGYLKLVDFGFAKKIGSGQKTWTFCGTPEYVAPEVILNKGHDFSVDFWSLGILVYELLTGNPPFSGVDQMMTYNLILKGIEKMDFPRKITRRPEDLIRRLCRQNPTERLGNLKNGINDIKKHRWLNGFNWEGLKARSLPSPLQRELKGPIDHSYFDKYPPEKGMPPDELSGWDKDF
Method: as §1

RSK1 = target: T11, RSK1 (Homo sapiens, UniProt Q15418)
T11 construct: made in house; host or cells: Sf9 insect cells (baculovirus)
Method: as §1

RSK2 = target: T12, RSK2 (Homo sapiens, UniProt P51812)
T12 construct: made in house; host or cells: Sf9 insect cells (baculovirus)
Method: as §1

RSK3 = target: T13, RSK3 (Homo sapiens, UniProt Q15349)
T13 construct: made in house; host or cells: Sf9 insect cells (baculovirus)
Method: as §1

RSK4 = target: T14, RSK4 (Homo sapiens, UniProt Q9UK32)
T14 construct: made in house; host or cells: Sf9 insect cells (baculovirus)
Method: as §1

T1 sequence (O96017 whole entry): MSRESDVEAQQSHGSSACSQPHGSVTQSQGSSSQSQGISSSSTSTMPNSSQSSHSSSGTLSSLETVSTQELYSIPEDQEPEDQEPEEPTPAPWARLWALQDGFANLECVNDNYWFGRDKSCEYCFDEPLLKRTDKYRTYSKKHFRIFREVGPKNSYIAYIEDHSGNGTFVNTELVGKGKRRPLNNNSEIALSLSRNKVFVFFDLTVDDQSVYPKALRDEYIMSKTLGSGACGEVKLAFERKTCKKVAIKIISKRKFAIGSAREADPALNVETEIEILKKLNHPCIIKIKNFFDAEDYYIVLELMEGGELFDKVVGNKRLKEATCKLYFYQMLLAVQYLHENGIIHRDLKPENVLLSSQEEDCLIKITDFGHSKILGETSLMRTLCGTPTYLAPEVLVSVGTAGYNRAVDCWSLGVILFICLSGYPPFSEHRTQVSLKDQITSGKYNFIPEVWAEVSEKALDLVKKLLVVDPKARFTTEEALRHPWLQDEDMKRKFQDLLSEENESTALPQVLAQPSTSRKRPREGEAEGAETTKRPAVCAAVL
T6 sequence (P09619 33-1106): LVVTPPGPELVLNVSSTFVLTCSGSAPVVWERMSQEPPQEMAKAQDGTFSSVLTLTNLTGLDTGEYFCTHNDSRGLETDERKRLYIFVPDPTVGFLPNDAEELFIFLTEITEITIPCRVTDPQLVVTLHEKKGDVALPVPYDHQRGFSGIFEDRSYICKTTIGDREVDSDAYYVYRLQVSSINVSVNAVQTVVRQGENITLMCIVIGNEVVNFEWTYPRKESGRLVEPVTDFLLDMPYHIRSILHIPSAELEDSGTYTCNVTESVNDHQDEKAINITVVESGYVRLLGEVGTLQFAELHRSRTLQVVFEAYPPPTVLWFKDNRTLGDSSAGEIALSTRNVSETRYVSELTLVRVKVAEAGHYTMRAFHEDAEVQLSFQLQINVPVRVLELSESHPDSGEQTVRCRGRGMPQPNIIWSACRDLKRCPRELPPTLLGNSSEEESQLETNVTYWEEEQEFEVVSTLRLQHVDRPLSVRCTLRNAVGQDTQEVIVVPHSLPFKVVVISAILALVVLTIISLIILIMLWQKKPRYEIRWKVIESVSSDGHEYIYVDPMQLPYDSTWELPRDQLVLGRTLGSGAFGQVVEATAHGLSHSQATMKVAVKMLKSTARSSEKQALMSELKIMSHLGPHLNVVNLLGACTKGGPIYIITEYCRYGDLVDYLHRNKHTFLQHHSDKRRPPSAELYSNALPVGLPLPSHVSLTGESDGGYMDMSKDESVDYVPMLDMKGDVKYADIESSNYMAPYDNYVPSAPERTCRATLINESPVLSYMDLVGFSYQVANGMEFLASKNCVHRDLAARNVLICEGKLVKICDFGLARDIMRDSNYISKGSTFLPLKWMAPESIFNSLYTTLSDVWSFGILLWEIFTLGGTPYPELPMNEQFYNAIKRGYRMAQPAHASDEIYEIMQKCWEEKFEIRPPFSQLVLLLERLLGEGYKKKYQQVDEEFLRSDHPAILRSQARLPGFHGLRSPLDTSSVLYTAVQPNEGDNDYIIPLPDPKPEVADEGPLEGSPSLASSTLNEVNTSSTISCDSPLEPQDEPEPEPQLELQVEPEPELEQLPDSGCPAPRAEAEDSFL
T2 sequence (Q05397 whole entry): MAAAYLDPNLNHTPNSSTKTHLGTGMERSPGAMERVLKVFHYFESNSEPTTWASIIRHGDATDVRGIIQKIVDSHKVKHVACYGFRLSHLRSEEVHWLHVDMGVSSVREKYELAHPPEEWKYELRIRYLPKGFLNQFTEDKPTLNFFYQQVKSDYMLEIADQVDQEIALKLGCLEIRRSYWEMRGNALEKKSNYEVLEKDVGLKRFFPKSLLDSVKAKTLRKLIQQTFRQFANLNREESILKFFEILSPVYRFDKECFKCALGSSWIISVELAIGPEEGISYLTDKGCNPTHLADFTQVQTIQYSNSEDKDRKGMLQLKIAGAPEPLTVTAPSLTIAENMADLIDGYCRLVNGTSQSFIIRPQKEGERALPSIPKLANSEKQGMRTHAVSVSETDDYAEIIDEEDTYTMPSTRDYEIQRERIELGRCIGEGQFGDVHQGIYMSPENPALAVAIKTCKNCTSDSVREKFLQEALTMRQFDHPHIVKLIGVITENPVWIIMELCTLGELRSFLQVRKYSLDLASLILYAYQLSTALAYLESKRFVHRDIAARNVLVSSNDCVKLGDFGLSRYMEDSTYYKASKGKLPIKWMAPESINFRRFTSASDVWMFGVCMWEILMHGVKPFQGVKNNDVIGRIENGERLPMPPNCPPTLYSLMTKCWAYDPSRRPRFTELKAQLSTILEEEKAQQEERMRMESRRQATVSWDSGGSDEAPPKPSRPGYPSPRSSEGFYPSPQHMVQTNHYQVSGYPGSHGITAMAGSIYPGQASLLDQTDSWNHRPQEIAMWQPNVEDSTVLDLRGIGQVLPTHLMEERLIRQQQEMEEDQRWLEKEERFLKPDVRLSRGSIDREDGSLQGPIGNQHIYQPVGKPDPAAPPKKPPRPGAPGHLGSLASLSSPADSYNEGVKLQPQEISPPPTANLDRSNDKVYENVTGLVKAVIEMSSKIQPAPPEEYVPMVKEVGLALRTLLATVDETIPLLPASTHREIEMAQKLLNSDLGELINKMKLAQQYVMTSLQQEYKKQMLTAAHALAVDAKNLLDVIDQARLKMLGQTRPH
T5 sequence (P16234 24-1089): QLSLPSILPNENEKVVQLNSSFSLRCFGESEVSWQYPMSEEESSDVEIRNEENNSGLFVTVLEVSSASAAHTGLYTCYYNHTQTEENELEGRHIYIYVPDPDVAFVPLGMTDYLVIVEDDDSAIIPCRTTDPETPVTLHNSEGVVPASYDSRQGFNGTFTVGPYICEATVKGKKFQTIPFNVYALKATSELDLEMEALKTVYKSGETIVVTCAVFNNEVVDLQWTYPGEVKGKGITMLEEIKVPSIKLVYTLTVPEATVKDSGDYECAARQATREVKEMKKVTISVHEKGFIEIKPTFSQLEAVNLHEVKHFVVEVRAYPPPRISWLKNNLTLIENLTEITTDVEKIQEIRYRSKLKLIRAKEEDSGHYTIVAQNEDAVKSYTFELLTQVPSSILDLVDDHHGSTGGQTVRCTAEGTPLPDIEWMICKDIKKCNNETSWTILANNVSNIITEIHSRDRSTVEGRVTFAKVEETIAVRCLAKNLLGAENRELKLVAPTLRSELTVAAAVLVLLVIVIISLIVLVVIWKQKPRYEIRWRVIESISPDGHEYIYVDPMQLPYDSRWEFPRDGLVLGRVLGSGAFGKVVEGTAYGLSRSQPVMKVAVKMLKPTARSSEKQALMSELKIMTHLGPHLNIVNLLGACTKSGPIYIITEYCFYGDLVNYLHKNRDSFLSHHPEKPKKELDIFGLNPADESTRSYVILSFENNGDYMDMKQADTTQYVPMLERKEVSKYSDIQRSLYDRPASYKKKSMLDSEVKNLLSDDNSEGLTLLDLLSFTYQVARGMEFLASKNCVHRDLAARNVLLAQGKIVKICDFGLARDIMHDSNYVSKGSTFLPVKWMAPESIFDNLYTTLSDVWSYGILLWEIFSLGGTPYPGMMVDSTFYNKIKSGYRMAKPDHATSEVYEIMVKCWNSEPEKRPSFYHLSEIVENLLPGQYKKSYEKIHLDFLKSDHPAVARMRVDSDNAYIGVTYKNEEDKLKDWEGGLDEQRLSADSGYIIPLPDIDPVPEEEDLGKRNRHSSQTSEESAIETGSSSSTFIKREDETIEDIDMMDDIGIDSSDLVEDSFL
T14 sequence (Q9UK32 whole entry): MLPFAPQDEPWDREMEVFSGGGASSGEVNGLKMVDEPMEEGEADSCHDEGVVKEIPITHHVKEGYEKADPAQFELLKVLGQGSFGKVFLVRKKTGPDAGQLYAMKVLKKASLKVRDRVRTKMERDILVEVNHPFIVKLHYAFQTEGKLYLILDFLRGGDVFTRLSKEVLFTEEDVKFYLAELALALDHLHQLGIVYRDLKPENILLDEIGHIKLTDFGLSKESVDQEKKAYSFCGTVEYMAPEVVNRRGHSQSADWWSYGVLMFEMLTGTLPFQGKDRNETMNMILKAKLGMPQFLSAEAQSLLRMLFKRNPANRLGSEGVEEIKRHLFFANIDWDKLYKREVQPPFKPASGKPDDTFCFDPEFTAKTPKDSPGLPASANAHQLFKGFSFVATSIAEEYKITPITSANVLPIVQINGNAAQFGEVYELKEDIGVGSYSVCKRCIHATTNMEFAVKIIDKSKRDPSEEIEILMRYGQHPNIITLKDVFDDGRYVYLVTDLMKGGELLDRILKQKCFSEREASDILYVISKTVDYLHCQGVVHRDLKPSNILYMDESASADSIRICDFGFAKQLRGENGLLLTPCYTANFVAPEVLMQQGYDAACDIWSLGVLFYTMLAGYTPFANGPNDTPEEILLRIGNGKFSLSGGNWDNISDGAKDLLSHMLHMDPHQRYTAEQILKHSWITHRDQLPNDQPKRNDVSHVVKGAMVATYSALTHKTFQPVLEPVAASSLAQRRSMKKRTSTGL
T7 sequence (Q96GD4 whole entry): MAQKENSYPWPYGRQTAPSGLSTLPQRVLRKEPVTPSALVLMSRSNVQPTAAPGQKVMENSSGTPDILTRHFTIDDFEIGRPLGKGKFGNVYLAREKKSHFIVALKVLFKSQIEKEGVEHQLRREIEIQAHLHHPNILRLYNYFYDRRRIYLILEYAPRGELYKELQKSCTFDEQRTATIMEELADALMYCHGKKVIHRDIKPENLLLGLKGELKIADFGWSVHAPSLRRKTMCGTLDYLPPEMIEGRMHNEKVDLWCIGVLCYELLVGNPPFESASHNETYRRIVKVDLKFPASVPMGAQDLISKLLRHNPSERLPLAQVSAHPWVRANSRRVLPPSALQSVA

SMILES | IC50 (CHK2) [nM] | IC50 (FAK) [nM] | IC50 (FLT3 D835Y) [nM] | IC50 (FLT3 wt) [nM] | IC50 (PDGFR-alpha) [nM] | IC50 (PDGFR-beta) [nM] | IC50 (Aurora B) [nM] | IC50 (MAP4K4) [nM] | IC50 (PLK4) [nM] | IC50 (PRKG2) [nM] | IC50 (RSK1) [nM] | IC50 (RSK2) [nM] | IC50 (RSK3) [nM] | IC50 (RSK4) [nM]
CN(C)CC(O)Cn1c2ccc(O)cc2c2c3c(c4c5cc(O)ccc5n(C)c4c21)C(=O)NC3=O (racemic) | 22000 | 1000 | 64 | 110 | 2000 | 700 | – | – | – | – | – | – | – | –
CN(C)CCCn1c2ccc(O)cc2c2c3c(c4c5cc(O)ccc5n(C)c4c21)C(=O)NC3=O [PQ-012, 12-(3-Dimethylaminopropyl)-6,7,12,13-tetrahydro-3,9-dihydroxy-12-methyl-5,7 dioxo-5H-indolo[2,3-a] pyrrolo [3,4-c]-carbazole] | 23 | 14 | < 3 | < 3 | < 3 | < 3 | – | – | – | – | – | – | – | –
COc1ccc2[nH]c3c(c4c(c5c6cc(OC)ccc6n(C)c35)C(=O)NC4=O)c2c1 [PQ-013, 6,7,12,13-Tetrahydro-3,9-dimethoxy-12-methyl-5,7 dioxo-5H-indolo [2,3-a] pyrrolo [3,4-c]-carbazole] | 40 | 36000 | < 3 | 4.6 | 10 | 19 | 210 | 35 | 180 | 67 | 23 | 430 | 170 | 78
COc1ccc2c(c1)c1c3c(c4c5ccccc5n(C)c4c1n2CCC#N)C(=O)NC3=O [PQ-014, 13-(2-Cyanoethyl)-6,7,12,13-tetrahydro-3-methoxy-12-methyl-5,7 dioxo-5H-indolo[2,3-a] pyrrolo [3,4-c]-carbazole] | 2100 | 1200 | 3.5 | 4.6 | 110 | 130 | – | – | – | – | – | – | – | –
NC(=O)CCn1c2ccccc2c2c3c(c4c5ccccc5[nH]c4c21)C(=O)NC3=O [PQ-041, 12-(2-Carbamidoethyl)-6,7,12,13-tetrahydro-5,1 dioxo-5H-indolo[2,3-a] pyrrolo [3,4-c]-carbazole] | 740 | 2400 | 3.9 | 5.6 | 130 | 150 | – | – | – | – | – | – | – | –
Cn1c2ccccc2c2c3c(c4c5ccccc5[nH]c4c21)C(=O)NC3=O [PQ-042, 6,7,12,13-Tetrahydro-12-methyl-5,7 dioxo-5H-indolo [2,3-a] pyrrolo [3,4-c]-carbazole] | > 10000 | > 10000 | 68 | 380 | > 10000 | > 10000 | – | – | – | – | – | – | – | –
